Tests used:
Format in all cases: biochemical
[1] = molecular target: T1, MRN (nucleotide site of Rad50) (Homo sapiens, UniProt Q92878); experiment: ATM kinase assay, inhibition of MRN/DNA-dependent activation; settings: wild-type ATM, ATP present; pH 7.5, 5 mM Mg, 30 C; site (Rad50 ATP pocket) inferred
T1 construct: full-length Mre11/Rad50/Nbs1 coexpressed in Sf21 insect cells, purified; with Double-strand break repair protein MRE11; Nibrin
T1 sequence (Q92878 1-1312): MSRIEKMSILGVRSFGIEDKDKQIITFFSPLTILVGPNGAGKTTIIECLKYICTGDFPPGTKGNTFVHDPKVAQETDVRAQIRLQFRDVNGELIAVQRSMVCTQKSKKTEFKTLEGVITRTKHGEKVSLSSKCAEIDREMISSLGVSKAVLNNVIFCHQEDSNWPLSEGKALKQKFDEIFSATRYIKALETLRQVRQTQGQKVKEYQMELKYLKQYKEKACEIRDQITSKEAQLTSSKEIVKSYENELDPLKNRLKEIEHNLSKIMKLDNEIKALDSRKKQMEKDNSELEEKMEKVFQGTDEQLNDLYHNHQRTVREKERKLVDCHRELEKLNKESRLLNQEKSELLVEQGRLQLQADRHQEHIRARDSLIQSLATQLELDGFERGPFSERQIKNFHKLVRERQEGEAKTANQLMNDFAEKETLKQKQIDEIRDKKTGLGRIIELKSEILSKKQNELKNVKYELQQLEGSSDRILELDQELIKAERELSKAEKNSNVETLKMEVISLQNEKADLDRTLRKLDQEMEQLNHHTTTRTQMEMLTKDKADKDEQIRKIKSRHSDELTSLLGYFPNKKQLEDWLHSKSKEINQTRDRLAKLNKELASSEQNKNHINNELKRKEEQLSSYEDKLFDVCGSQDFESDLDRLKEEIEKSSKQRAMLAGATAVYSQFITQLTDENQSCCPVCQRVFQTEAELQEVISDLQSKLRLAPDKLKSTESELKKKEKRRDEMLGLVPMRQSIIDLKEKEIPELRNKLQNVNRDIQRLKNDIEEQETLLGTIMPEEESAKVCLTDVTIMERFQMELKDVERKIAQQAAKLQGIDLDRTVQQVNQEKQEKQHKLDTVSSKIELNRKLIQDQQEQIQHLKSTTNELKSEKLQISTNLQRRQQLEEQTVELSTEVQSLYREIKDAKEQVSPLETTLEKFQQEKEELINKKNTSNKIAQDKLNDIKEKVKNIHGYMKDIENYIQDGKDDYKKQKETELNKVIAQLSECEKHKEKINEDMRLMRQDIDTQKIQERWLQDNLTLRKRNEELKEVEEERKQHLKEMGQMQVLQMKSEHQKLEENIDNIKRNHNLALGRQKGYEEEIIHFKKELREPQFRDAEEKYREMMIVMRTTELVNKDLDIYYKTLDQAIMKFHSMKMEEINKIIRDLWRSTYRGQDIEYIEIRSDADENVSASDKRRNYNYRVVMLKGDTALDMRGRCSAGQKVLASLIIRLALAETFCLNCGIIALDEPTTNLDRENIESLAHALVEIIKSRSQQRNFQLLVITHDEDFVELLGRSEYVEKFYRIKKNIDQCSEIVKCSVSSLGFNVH
T1 sequence (P49959 2-708 partner): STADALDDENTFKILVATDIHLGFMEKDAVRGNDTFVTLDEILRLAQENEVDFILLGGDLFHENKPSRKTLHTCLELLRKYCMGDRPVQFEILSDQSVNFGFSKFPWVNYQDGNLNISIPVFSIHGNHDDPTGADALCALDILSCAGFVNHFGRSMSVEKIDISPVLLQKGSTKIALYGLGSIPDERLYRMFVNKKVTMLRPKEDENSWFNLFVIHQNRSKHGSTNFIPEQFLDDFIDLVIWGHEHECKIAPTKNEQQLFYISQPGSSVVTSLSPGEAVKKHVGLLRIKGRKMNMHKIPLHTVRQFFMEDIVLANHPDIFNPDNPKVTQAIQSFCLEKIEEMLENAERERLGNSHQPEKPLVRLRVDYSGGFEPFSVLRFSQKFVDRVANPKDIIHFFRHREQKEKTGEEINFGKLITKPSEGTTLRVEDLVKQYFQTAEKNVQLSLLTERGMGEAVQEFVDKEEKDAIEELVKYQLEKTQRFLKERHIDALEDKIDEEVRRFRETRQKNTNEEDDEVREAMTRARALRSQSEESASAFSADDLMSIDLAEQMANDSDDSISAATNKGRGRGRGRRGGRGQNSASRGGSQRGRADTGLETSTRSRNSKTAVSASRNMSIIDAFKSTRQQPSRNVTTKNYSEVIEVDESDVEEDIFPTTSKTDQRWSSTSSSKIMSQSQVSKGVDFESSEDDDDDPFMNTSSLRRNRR
T1 sequence (O60934 1-754 partner): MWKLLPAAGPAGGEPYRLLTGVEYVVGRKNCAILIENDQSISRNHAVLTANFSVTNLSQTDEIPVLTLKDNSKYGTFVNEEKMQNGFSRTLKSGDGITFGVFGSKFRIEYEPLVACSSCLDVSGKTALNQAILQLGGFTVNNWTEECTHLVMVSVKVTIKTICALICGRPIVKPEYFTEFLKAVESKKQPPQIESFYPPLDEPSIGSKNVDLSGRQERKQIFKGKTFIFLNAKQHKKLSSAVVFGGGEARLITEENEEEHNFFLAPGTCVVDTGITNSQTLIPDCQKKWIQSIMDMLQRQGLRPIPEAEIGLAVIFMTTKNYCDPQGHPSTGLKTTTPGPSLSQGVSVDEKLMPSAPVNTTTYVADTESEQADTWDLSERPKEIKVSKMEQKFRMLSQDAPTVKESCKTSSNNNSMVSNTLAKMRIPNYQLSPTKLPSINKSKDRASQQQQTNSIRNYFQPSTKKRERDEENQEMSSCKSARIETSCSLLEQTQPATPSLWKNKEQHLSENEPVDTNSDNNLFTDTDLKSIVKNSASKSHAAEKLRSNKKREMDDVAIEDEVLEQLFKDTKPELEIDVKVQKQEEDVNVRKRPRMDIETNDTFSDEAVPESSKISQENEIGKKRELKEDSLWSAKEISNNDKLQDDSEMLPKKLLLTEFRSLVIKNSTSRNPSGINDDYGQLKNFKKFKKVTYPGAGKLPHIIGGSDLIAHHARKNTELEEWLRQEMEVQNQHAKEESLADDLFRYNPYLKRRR

ATM = molecular target: T2, ATM (Homo sapiens, UniProt Q13315, Y2755A); experiment: kinase assay, GST-p53 Ser-15 phosphorylation, Western blot; settings: H2O2-activated ATM without MRN; analog 1 mM; pH 7.5, 5 mM Mg, 30 C
T2 construct: full-length, Flag-tagged and HA-tagged, transiently expressed in human 293T cells, purified as dimer
T2 sequence (Q13315 2-3056 Y2755A): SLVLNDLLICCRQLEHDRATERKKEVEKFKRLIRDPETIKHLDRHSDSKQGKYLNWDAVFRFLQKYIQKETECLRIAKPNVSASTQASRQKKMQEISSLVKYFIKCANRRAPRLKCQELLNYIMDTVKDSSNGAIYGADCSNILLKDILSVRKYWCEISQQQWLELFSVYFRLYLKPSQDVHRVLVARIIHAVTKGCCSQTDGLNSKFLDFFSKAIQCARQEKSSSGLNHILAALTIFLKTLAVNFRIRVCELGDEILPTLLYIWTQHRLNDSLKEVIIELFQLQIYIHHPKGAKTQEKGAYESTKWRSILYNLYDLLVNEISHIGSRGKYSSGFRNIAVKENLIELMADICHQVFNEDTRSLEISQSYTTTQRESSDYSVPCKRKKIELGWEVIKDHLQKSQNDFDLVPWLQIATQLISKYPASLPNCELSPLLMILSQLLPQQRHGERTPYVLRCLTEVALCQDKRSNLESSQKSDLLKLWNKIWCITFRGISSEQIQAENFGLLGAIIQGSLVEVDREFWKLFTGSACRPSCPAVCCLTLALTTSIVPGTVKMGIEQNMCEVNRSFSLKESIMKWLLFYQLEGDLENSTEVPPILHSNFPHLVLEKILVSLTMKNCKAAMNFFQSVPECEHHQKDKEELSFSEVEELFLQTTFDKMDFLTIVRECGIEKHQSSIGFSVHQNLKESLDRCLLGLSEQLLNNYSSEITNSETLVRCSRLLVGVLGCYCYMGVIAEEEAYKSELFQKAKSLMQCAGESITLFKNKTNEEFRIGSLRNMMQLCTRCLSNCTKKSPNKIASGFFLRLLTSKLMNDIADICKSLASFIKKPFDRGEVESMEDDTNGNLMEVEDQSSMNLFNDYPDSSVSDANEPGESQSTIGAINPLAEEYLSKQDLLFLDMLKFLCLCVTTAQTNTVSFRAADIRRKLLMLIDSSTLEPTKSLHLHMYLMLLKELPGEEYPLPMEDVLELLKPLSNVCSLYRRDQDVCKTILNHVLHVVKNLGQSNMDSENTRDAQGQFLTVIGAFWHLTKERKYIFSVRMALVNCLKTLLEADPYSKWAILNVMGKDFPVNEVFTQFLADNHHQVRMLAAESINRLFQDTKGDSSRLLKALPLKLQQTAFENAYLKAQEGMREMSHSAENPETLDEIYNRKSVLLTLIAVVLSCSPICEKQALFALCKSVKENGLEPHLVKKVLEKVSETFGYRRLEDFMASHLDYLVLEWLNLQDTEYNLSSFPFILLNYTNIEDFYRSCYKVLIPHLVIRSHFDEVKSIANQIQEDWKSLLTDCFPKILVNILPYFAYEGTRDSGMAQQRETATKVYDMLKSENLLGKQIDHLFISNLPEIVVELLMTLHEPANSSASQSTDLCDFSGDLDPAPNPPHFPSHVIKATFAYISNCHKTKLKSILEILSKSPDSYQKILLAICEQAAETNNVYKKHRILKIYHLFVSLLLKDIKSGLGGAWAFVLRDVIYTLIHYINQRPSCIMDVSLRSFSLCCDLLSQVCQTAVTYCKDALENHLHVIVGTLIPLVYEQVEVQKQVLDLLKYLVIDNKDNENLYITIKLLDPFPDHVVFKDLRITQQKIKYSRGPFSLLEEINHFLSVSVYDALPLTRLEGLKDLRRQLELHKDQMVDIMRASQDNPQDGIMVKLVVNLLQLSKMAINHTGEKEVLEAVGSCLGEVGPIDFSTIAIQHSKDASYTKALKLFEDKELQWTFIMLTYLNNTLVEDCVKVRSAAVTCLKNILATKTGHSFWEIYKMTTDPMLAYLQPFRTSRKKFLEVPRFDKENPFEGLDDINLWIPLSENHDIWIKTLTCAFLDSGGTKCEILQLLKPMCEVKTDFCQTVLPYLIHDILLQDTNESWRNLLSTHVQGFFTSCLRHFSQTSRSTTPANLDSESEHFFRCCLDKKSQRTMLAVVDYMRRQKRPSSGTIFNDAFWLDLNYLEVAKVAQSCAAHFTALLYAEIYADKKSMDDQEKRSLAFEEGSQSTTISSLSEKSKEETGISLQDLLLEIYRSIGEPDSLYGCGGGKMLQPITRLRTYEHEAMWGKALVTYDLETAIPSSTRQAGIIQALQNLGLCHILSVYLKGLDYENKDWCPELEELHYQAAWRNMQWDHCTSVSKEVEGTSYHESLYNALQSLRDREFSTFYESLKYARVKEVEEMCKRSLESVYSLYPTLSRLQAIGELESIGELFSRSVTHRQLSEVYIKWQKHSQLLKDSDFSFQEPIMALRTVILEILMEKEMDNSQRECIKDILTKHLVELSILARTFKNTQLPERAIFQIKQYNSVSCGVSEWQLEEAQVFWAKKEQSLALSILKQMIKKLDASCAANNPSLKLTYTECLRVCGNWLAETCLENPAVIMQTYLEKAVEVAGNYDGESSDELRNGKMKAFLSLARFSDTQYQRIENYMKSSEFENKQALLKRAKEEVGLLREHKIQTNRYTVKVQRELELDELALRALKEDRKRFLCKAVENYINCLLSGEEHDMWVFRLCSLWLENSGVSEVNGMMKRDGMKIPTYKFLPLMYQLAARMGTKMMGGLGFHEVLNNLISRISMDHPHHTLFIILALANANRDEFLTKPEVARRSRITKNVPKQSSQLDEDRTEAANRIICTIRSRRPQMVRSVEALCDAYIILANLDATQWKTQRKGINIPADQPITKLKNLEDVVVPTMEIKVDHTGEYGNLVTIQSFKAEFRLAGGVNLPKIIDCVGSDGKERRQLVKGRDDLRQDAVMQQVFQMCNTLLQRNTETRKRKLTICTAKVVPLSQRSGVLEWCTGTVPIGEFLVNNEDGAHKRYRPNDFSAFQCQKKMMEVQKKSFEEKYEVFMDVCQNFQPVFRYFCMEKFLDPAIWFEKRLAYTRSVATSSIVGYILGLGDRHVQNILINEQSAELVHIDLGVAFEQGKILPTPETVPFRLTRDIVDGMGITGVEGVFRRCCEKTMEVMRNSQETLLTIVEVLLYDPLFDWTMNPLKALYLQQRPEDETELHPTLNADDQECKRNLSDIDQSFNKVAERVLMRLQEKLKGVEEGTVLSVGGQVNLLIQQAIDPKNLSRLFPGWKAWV

[2] = molecular target: T1, MRN (nucleotide site of Rad50); experiment: ATM kinase assay with analog-sensitive ATM Y2755A; settings: N6-furfuryl-ATP as ATM nucleotide; MRN/DNA; AMP-PNP supports MRN activation of ATM

SMILES | ATM kinase assay, inhibition of MRN/DNA-dependent activation [1] | kinase assay, GST-p53 Ser-15 phosphorylation, Western blot (ATM) | ATM kinase assay with analog-sensitive ATM Y2755A [2]
CCCC(C)Nc1ncnc2c1ncn2[C@@H]1O[C@H](COP(=O)(O)OP(=O)(O)OP(=O)(O)O)[C@@H](O)[C@H]1O (stereo partly drawn) [N6-(1-methylbutyl)-ATP, N6-(1-methylbutyl)adenosine-5′-O-triphosphate] | N6-(1-methylbutyl)-ATP inhibited the activation of wild-type ATM by MRN/DNA | N6-(1-methylbutyl)-ATP was utilized by the Y2755A mutant ATM | –
Nc1ncnc2c1ncn2[C@@H]1O[C@H](COP(=O)(O)OP(=O)(O)NP(=O)(O)O)[C@@H](O)[C@H]1O [AMP-PNP, adenosine 5′-(β,γ-imino)triphosphate] | – | – | Y2755A ATM phosphorylated p53 in the presence of MRN/DNA, N6-(furfuryl)-ATP, and AMP-PNP

Source: publication PMC3642328, “Ataxia Telangiectasia-Mutated (ATM) Kinase Activity Is Regulated by ATP-driven Conformational Changes in the Mre11/Rad50/Nbs1 (MRN) Complex*^([image sbox.jpg])” (The Journal of Biological Chemistry, 2013)
